Measurements as given in US10524455B2, “Methods and compositions for inducing hygienic behavior in honey bees” (University of North Carolina at Greensboro, priority 2015, dated 2020).

Legend:
[1] = system: honey bees (MH and control colonies); assay: Induced hygienic behavior study with synthesized P32 applied to cell caps by syringe; assay type: in vivo, honey bee; conditions: results discarded by the patent for methodological issues
Procedure: Methods: The pure P32 compound will be aliquoted and diluted in hexane. 1 ul of different dilutions will be applied onto larvae and/or caps of individual brood cells in three experimental hives. The VSH, MH, and control genotype (together, hereinafter, referred to as “line”) will be tested for their response. Hives from each source will be set up in an experimental apiary and standardized in size, brood, and resources. Brood frames containing uncapped 5th larval instars will be collected from each hive, and the location of the uncapped cells will be marked using a plastic transparency. Frames will be replaced into the hives, and cells that are capped within the next 16 hours will be recorded and used for the experiment. At day 4 post-capping, cells will be treated with hexane (a negative control) or one of the following dilutions of pure P32: 10^−1, 10^−3, 10^−5, 10^−7, 10^−9, 10^−11. Pin-killed brood will be used as a positive control. Twenty cells will receive each treatment in each colony for a total sample size of 1440 (20 cells×8 treatments×3 replicate hives×3 genotypes). Treatments will be randomly distributed across experimental combs and the location of each treatment recorded on a clear transparent sheet put over the comb. […] A new method for application of chemicals by airbrushing was also utilized to increase speed and quantity in chemical application (FIG. 12).

[2] = system: honey bees (single VSH colony); assay: Induced hygienic behavior study with synthesized P32 applied to cell caps by airbrushing; assay type: in vivo, honey bee; conditions: for removal of pupae in treated brood cells compared to all control brood cells: roughly 10 ul per cell by airbrushing, 24 hours, controls: (Z)-16-dotriacontene at any concentration, hexane, no treatment; for dose dependence of removal: concentrations 1%, 0.3%, 0.1% by airbrushing
Procedure: Methods: The dose dependent removal effects of (Z)-10-tritriacontene and (Z)-16-dotriacontene applied to wax caps of honey bee brood cells were measured repeatedly in a single VSH colony. (Z)-10-tritriacontene, along with (Z)-16-dotriacontene and hexane controls were applied to capped honey bee brood cells using a Paasche H-100D Single Action Airbrush & Compressor system, operating at 25 PSI. To control the amount of brood cells exposed to each chemical treatment (and thus the dose per cell) 3″ diameter PVC pipe pieces were inserted into a brood frames containing capped pupae. Thus, for each treatment and replicate, 2 mL of solution was applied to a single 3″-diameter section of brood comb by airbrushing. Since there are roughly 200 cells per 3″ diameter circle, this is roughly 10 ul solution per cell. Concentrations of 1%, 0.3%, and 0.1% (Z)-10-tritriacontene and (Z)-16-dotriacontene were tested. Sample sizes for (Z)-10-tritriacontene were 532, 420, and 282 cells for concentrations of 1%, 0.3%, and 0.1%, respectively. Sample sizes for (Z)-16-dotriacontene were 289, 296, and 311 for concentrations of 1%, 0.3%, and 0.1%, respectively. Sample sizes for the hexane control and no treatment control were 425 and 154, respectively. The location of all assays on frames was randomized. The frequency of uncapping and removal was recorded at four hours and twenty-four hours post treatment. Chi-square analysis with Bonferroni correction was used to compare hygienic removal and uncapping between treatments.

CCCCCCCCC/C=C\CCCCCCCCCCCCCCCCCCCCCC [(Z)-10-tritriacontene]
removal of treated cells compared to hexane treated cells ([1]; MH colonies (both tested)): significantly higher removal
removal of treated cells compared to hexane treated cells ([1]; control colonies): no significant difference
removal of pupae in treated brood cells compared to all control brood cells ([2]; 0.3% in hexane): significantly greater
removal of pupae in treated brood cells compared to all control brood cells ([2]; 1% in hexane): significantly greater
dose dependence of removal [2]: removed in a dose-dependent manner

CCCCCCCCCCCCCCC/C=C\CCCCCCCCCCCCCCC [(Z)-16-dotriacontene, reference compound]
dose dependence of removal [2]: removed in a dose-dependent manner
